Source: US20050038111A1, “Pharmaceutical formulation comprising bicalutamide” (priority 2001, published 2005)
Structures can show the parent of a compound that is named as a salt.

Key:
[1] = pH shift dissolution test (SGF pH 1.5 then pH 6.5); type: physicochemical; conditions: 1 h SGF pH 1.5 then 1 h at pH 6.5
[2] = Crystallinity assessment by X-ray powder diffraction (XRPD); type: physicochemical
Protocol: Dispersion prepared from a solution of bicalutamide and tamoxifen citrate.
X-ray diffraction analysis was performed according to standard methods which can be found in e.g. Bunn, C. W. (1948), Chemical Crystallography, Clarendon Press, London; or Klug, H. P. & Alexander, L. E. (1974), X-Ray Diffraction Procedures, John Wiley and Sons, New York.

CC/C(=C(\c1ccccc1)c1ccc(OCCN(C)C)cc1)c1ccccc1 [tamoxifen citrate, (Z)-2-[p-(1,2-diphenylbut-1-enyl)phenoxy]ethyldimethylamine]
tamoxifen in solution post shift [1]: approx. 80%
crystalline tamoxifen citrate by XRPD [2]: crystalline
